In patent US8759535B2, “Substituted fused imidazole derivatives, pharmaceutical compositions, and methods of use thereof” (High Point Pharmaceuticals, LLC, priority 2010, dated 2014):
Counter-ions that a name gives are not always drawn.

system: HMOX1; experiment: HMOX1 Protein Assay (immunostaining of HO-1 in NHLF cells, GE InCell 1000); format: cell-based; settings: Homo sapiens, fold change above DMSO treated cells, 3 μM compound (asterisk), 16 h
Outline: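 Fold induction of HO-1 over vehicle, normally at 5 μM compound (asterisk marks 3 μM), in 0.8% DMSO medium. Normal human lung fibroblasts were treated 16 h, then paraformaldehyde-fixed, anti-HO-1/Alexa 488 stained with Hoechst, and read by high-content imaging.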

Row | SMILES | fold induction at 3 µM
1 | C[C@@H](NC(=O)c1ccc2c(c1)nc(Nc1nc3ccc(Cl)cc3s1)n2C)C(=O)N1CCN(C)CC1 [Example 469, 2-(6-Chloro-benzothiazol-2-ylamino)-1-methyl-1H-benzoimidazole-5-carboxylic acid [(R)-1-methyl-2-(4-methyl-piperazin-1-yl)-2-oxo-ethyl]-amide] | 26.1
2 | CN(C)CCCNC(=O)c1ccc2c(c1)nc(Nc1nc3ccc(C(F)(F)F)cc3s1)n2C [Example 350, 1-Methyl-2-(6-trifluoromethyl-benzothiazol-2-ylamino)-1H-benzoimidazole-5-carboxylic acid (3-dimethylamino-propyl)-amide] | 24

same assay, conditions: Homo sapiens, fold change above DMSO treated cells, 5 μM compound, 16 h

Row | SMILES | fold induction at 5 µM
3 | CNC(=O)c1ccc2c(c1)nc(Nc1nc3ccc(OC(F)(F)F)cc3s1)n2C(C)C [Example 160, 1-Isopropyl-2-(6-trifluoromethoxy-benzothiazol-2-ylamino)-1H-benzoimidazole-5-carboxylic acid methylamide] | 22.9
4 | Cn1c(Nc2nc3ccc(OC(F)(F)F)cc3s2)nc2cc(C(=O)NCC(F)(F)F)ccc21 [Example 16, 1-Methyl-2-(6-trifluoromethoxy-benzothiazol-2-ylamino)-1H-benzoimidazole-5-carboxylic acid (2,2,2-trifluoro-ethyl)-amide] | 30
5 | CCN(CC)c1cc2c(cc1C(=O)O)nc(Nc1nc3ccc(OC(F)(F)F)cc3s1)n2C [Example 70, 6-Diethylamino-1-methyl-2-(6-trifluoromethoxy-benzothiazol-2-ylamino)-1H-benzoimidazole-5-carboxylic acid] | 21.4
6 | CNC(=O)c1ccc2c(c1)nc(Nc1nc3cc(F)ccc3s1)n2C [Example 122, 2-(5-Fluoro-benzothiazol-2-ylamino)-1-methyl-1H-benzimidazole-5-carboxylic acid methylamide] | 26.1
7 | CN(C)C(=O)CNC(=O)c1cnc2c(c1)nc(Nc1nc3ccc(OC(F)(F)F)cc3s1)n2C [Example 74, 3-Methyl-2-(6-trifluoromethoxy-benzothiazol-2-ylamino)-3H-imidazo[4,5-b]pyridine-6-carboxylic acid dimethylcarbamoylmethyl-amide] | 11.1
8 | Cn1c(Nc2nc3ccc(OC(F)(F)F)cc3s2)nc2cc(C(=O)NCC3COCCO3)ccc21 (stereo not shown) [Example 49, 1-Methyl-2-(6-trifluoromethoxy-benzothiazol-2-ylamino)-1H-benzoimidazole-5-carboxylic acid ([1,4]dioxan-2-ylmethyl)-amide] | 23.1
9 | CCn1c(Nc2nc3ccc(C(F)(F)F)cc3s2)nc2cc(C(=O)NCC(C)(C)OC)ccc21 [Example 184, 1-Ethyl-2-(6-trifluoromethyl-benzothiazol-2-ylamino)-1H-benzoimidazole-5-carboxylic acid (2-methoxy-2-methyl-propyl)-amide] | 9.5
10 | Cn1c(Nc2nc3ccc(OC(F)(F)F)cc3s2)nc2cc(C(=O)NCCC3CCC(O)CC3)ccc21 (stereo not shown) [Example 253, 1-Methyl-2-(6-trifluoromethoxy-benzothiazol-2-ylamino)-1H-benzoimidazole-5-carboxylic acid [2-(4-hydroxy-cyclohexyl)-ethyl]-amide] | 26.6
11 | COc1cc2c(cc1C(=O)NCCN1CCOCC1)nc(Nc1nc3ccc(OC(F)(F)F)cc3s1)n2C [Example 66, 6-Methoxy-1-methyl-2-(6-trifluoromethoxy-benzothiazol-2-ylamino)-1H-benzoimidazole-5-carboxylic acid (2-morpholin-4-yl-ethyl)-amide] | 20.8
12 | CCNC(=O)c1ccc2c(c1)nc(Nc1nc3ccc(C(F)(F)F)cc3s1)n2C [Example 26, 1-Methyl-2-(6-trifluoromethyl-benzothiazol-2-ylamino)-1H-benzoimidazole-5-carboxylic acid ethylamide] | 15.5
13 | Cn1c(Nc2nc3ccc(OC(F)(F)F)cc3s2)nc2cc(C(=O)NCCN)ccc21 [Example 104, 1-Methyl-2-(6-trifluoromethoxy-benzothiazol-2-ylamino)-1H-benzoimidazole-5-carboxylic acid (2-amino-ethyl)-amide hydrochloride] | 16.3
14 | COCCn1c(Nc2nc3ccc(Cl)cc3s2)nc2cc(C(=O)NCC(=O)N3CCN(C)CC3)ccc21 [Example 428, 2-(6-Chloro-benzothiazol-2-ylamino)-1-(2-methoxy-ethyl)-1H-benzoimidazole-5-carboxylic acid [2-(4-methyl-piperazin-1-yl)-2-oxo-ethyl]-amide] | 24.4
15 | CC(=O)c1ccc2c(c1)nc(Nc1nc3ccc(OC(F)(F)F)cc3s1)n2C [Example 200, 1-[1-Methyl-2-(6-trifluoromethoxy-benzothiazol-2-ylamino)-1H-benzoimidazol-5-yl]-ethanone] | 22.9
16 | Cn1c(Nc2nc3ccc(OC(F)(F)F)cc3s2)nc2ccc(C(=O)NCCOCCO)cc21 [Example 286, 3-Methyl-2-(6-trifluoromethoxy-benzothiazol-2-ylamino)-3H-benzoimidazole-5-carboxylic acid [2-(2-hydroxy-ethoxy)-ethyl]-amide] | 61.1
17 | CCNC(=O)c1ccc2c(c1)nc(Nc1nc3ccc(Cl)cc3s1)n2CC [Example 175, 2-(6-Chloro-benzothiazol-2-ylamino)-1-ethyl-1H-benzoimidazole-5-carboxylic acid ethylamide] | 28.7
18 | Cn1c(Nc2nc3ccc(OC(F)(F)F)cc3s2)nc2cc(C(=O)N[C@@H]3C[C@H](CO)[C@@H](O)[C@H]3O)ccc21 [Example 282, 1-Methyl-2-(6-trifluoromethoxy-benzothiazol-2-ylamino)-1H-benzoimidazole-5-carboxylic acid ((1R,2S,3R,4R)-2,3-dihydroxy-4-hydroxymethyl-cyclopentyl)-amide] | 51.7
19 | Cn1c(Nc2nc3ccc(OC(F)(F)F)cc3s2)nc2cc(C(=O)O)cnc21 [Example 72, 3-Methyl-2-(6-trifluoromethoxy-benzothiazol-2-ylamino)-3H-imidazo[4,5-b]pyridine-6-carboxylic acid] | 11.9
20 | CN1CCN(C(=O)CCCNC(=O)c2ccc3c(c2)nc(Nc2nc4ccc(Cl)cc4s2)n3C)CC1 [Example 377, 2-(6-Chloro-benzothiazol-2-ylamino)-1-methyl-1H-benzoimidazole-5-carboxylic acid [4-(4-methyl-piperazin-1-yl)-4-oxo-butyl]-amide] | 20.3
21 | CN(C)CC(=O)N1CCC[C@H](NC(=O)c2ccc3c(c2)nc(Nc2nc4ccc(Cl)cc4s2)n3C)C1 [Example 312, 2-(6-Chloro-benzothiazol-2-ylamino)-1-methyl-1H-benzoimidazole-5-carboxylic acid [(S)-1-(2-dimethylamino-acetyl)-piperidin-3-yl]-amide] | 68.8
22 | CC(=O)NCCOCCNC(=O)c1ccc2c(c1)nc(Nc1nc3ccc(OC(F)(F)F)cc3s1)n2C [Example 275, 1-Methyl-2-(6-trifluoromethoxy-benzothiazol-2-ylamino)-1H-benzoimidazole-5-carboxylic acid [2-(2-acetylamino-ethoxy)-ethyl]-amide] | 77.4
23 | CNC(=O)c1ccc2c(c1)nc(Nc1nc3ccc(S(C)(=O)=O)cc3s1)n2C [Example 126, 2-(6-Methanesulfonyl-benzothiazol-2-ylamino)-1-methyl-1H-benzimidazole-5-carboxylic acid methylamide] | 4.6
24 | CCS(=O)(=O)CCNC(=O)c1ccc2c(c1)nc(Nc1nc3ccc(OC(F)(F)F)cc3s1)n2C [Example 109, 1-Methyl-2-(6-trifluoromethoxy-benzothiazol-2-ylamino)-1H-benzimidazole-5-carboxylic acid (2-ethanesulfonyl-ethyl)-amide] | 20.9
25 | Cn1c(Nc2nc3ccc(OC(F)(F)F)cc3s2)nc2cc(C(=O)NC3CCN(C(=O)OC(C)(C)C)CC3)ccc21 [Example 92, 4-{[1-Methyl-2-(6-trifluoromethoxy-benzothiazol-2-ylamino)-1H-benzoimidazole-5-carbonyl]-amino}-piperidine-1-carboxylic acid tert-butyl ester] | 3.4
26 | CCn1c(Nc2nc3ccc(OC(F)(F)F)cc3s2)nc2cc(C(=O)OC)ccc21 [Example 153, 1-Ethyl-2-(6-trifluoromethoxy-benzothiazol-2-ylamino)-1H-benzoimidazole-5-carboxylic acid methyl ester] | 4
27 | Cn1c(Nc2nc3ccc(OC(F)(F)F)cc3s2)nc2cc(C(=O)N3CCCC3)ccc21 [Example 7, [1-Methyl-2-(6-trifluoromethoxy-benzothiazol-2-ylamino)-1H-benzoimidazol-5-yl]-pyrrolidin-1-yl-methanone] | 5.4
28 | CNC(=O)c1ccc2c(c1)nc(Nc1nc3ccc(OC(F)(F)F)cc3s1)n2CCN [Example 173, 1-(2-Amino-ethyl)-2-(6-trifluoromethoxy-benzothiazol-2-ylamino)-1H-benzoimidazole-5-carboxylic acid methylamide hydrochloride] | 21.4
29 | COC(=O)c1cc2nc(Nc3nc4ccc(OC(F)(F)F)cc4s3)n(C)c2cc1OC [Example 61, 6-Methoxy-1-methyl-2-(6-trifluoromethoxy-benzothiazol-2-ylamino)-1H-benzoimidazole-5-carboxylic acid methyl ester] | 12.1
30 | CN1CCC(N(C)C(=O)CNC(=O)c2ccc3c(c2)nc(Nc2nc4ccc(Cl)cc4s2)n3C)C1 (stereo not shown) [Example 395, 2-(6-Chloro-benzothiazol-2-ylamino)-1-methyl-1H-benzoimidazole-5-carboxylic acid {[methyl-(1-methyl-pyrrolidin-3-yl)-carbamoyl]-methyl}-amide] | 72
31 | Cn1c(Nc2nc3ccc(OC(F)(F)F)cc3s2)nc2cc(C(=O)NCCNS(C)(=O)=O)ccc21 [Example 322, 1-Methyl-2-(6-trifluoromethoxy-benzothiazol-2-ylamino)-1H-benzoimidazole-5-carboxylic acid (2-methanesulfonylamino-ethyl)-amide] | 36
